In the NIST ThermoML archive (doi:10.1021/je200565u):
Numbers after ± are expanded uncertainties. Values belong to the molecule of their own block, whether it stands above or below them.

Conditions: Liquid, Closed cell (Static) method

SMILES: CCCCOCCO [2-butoxyethan-1-ol]
vapor or sublimation pressure (441.3 K): 93.9 ± 0.8 kPa | vapor or sublimation pressure (441.5 K): 93.6 ± 0.8 kPa | vapor or sublimation pressure (442.1 K): 94.1 ± 0.8 kPa

SMILES: CCOCCOC(C)=O [2-ethoxyethyl ethanoate]
vapor or sublimation pressure (427.8 K): 93.3 ± 0.8 kPa | vapor or sublimation pressure (428.3 K): 93.7 ± 0.8 kPa | vapor or sublimation pressure (428.6 K): 93.3 ± 0.8 kPa

SMILES: CCCCOCCOC(C)=O [2-butoxyethyl acetate]
vapor or sublimation pressure (463 K): 93.7 ± 0.8 kPa | vapor or sublimation pressure (463.3 K): 93.6 ± 0.8 kPa | vapor or sublimation pressure (464.2 K): 93.9 ± 0.8 kPa

vapor or sublimation pressure (406.2 K): 93.3 ± 0.8 kPa | vapor or sublimation pressure (406.9 K): 93.3 ± 0.8 kPa | vapor or sublimation pressure (407.8 K): 93.6 ± 0.8 kPa
SMILES: CCOCCO [2-ethoxyethan-1-ol]
